Patent US8759382B2, “Propargyl-trifluoromethoxy-aminobenzothiazole derivatives, their preparation and use” (Teva Pharmaceutical Industries Ltd., priority 2010, dated 2014)

System: EAE induced in the CSJL/FI strain of mice
Test: EAE model in CSJL/FI mice (MSCH/CFA-induced), clinical scoring
Type: in vivo
Protocol: EAE induced in the CSJL/FI strain of mice was selected to test the compounds mentioned above, as it is an established EAE model to test the efficacy of candidate molecules for MS treatment.
Disease was induced in all mice by the injection of the encephalitogenic emulsion (MSCH/CFA). Treatment was started from day 1 of the study or at disease onset and was administered every day, orally (BID), from onset of the study.
Healthy, nulliparous, non-pregnant female mice of the CSJL/FI strain obtained from Harlan Animal Breeding Center, Jerusalem, Israel were used in the study. The animals weighed about 17-20 g on arrival, and were approximately 9 weeks of age at initiation of the study. Overtly healthy animals were assigned to study groups arbitrarily before treatment commenced.
The mice were allocated to the following 8 groups of 10 mice each:
Treatments in all groups were administered orally.
The emulsion was made from equal parts of oil (4 mL CFA containing 1.0 mg/ml MT) and liquid portions ([…] MSCH/2.5 mL PBS) in two syringes connected to each other with a Leur lock. The concentration of MSCH in emulsion is 40 mg/mL.
The emulsion was transferred to an insulin syringe before injection. 0.05 ml was injected into the left foot-pad of each mouse.
104 μL Pertussis toxin (200 μg/ml) was added to 25.87 ml PBS to yield 800 ng/ml. The pertussis toxin was administered intravenously on the day of the encephalitogen injection and 48 hours later (160.0 ng/0.2 ml/mouse×2=320 ng/mouse).
Laquinimod was diluted in DDW water to yield 0.1 mg/ml. The solution was stored in an amber colored bottle at 2 to 8° C. The 0.1 mg/ml laquinimod was administered orally, once, daily from the initiation of the study until study termination (Day 23).
Compounds B and C were dissolved in 5% Dextrose to concentrations of 2.5, 5.0 and 10 mg/ml for dose levels of 25, 50 and 100 mg/kg respectively. Test samples were freshly prepared. The 2.5, 5.0 and 10 mg/ml concentrations of Compounds B and C were administered orally, twice daily (BID) from initiation of study until study termination (Day 23) to groups
Scoring of EAE clinical signs were initiated from the 10th day post-EAE induction and were continued daily. The clinical signs were recorded on observation cards according to a grading system described in the table below.
All mice having scores of 1 and above were considered sick.
Animals with a score of 4 for more than two days were given a score of 5 and sacrificed for humane reasons. For calculation purposes, the score (5) of animals that are sacrificed or died will be carried forward (LOCF).
The number of sick animals in each group was summed.
The incidence of disease was calculated as
The percent inhibition according to incidence was calculated as: […]
The number of dead or moribund animals in each group was summed.
The mortality of disease was calculated as
The percent inhibition according to mortality was calculated as
The mean delay in onset of disease expressed in days is calculated by subtracting the mean onset of disease in control group from test group.
The mean maximal score (MMS) of each group was calculated as
The percent inhibition according to MMS was calculated as
The daily scores of each mouse in the test group was summed and the individual mean daily score (IMS) was calculated as
The mean group score (GMS) was calculated as
The percent inhibition was calculated as
This example was performed in the same manner as example 3 with the following groups:
Compound A was prepared for administration by mixing in 0.5% methyl cellulose (0.5% MC) to concentrations of 2.5, 5.0 and 10 mg/ml for dose levels of 25, 50 and 100 mg/kg respectively. The samples were vortexed and sonicated until a clear solution was obtained.
The 2.5, 5.0 and 10 mg/ml concentrations of Compound A were administered orally, twice daily (BID) from initiation of study until study termination (Day 23) at a volume dose of 0.2 ml/mouse.
Compound B was prepared for administration as in Example 3. […]

[1] = Example 3, all dose levels (25, 50, 100 mg/kg BID oral) in 5% dextrose
[2] = Example 3, 1 mg/kg QD oral, Day 0 to 22, percent inhibition vs 5% dextrose negative control

Q: How did the “activity in EAE (in words)” value [1] turn out when `C#CCN(C)Cc1nc2ccc(OC(F)(F)F)cc2s1` [Compound C, N-methyl-N-((6-(trifluoromethoxy)benzo[d]thiazol-2-yl)methyl)prop-2-yn-1-amine] was run?
A: some activity

Q: For `CCN(C(=O)c1c(O)c2c(Cl)cccc2n(C)c1=O)c1ccccc1` [laquinimod, reference compound], which “activity according to GMS (group mean score)” value [2] is on record?
A: 96.7%

Q: What about the “activity according to MMS (mean maximal score)” value [2] of the same molecule?
A: 93.5%

Q: What about the “activity according to incidence” value [2] of the same molecule?
A: 80%

Q: `C#CCNCc1nc2ccc(OC(F)(F)F)cc2s1` [Compound B, N-((6-(trifluoromethoxy)benzo[d]thiazol-2-yl)methyl)prop-2-yn-1-amine] was tested. Which mortality (Example 3, 25 mg/kg BID oral) did it give?
A: no mortality

Q: And the “activity based on GMS (EAE inhibition)” value (Example 3, 25 mg/kg BID oral in 5% dextrose, Day 0 to 22)?
A: 55.9%

Q: What about the “activity based on GMS (EAE inhibition)” value (Example 3, 100 mg/kg BID oral in 5% dextrose, Day 0 to 22) of the same molecule?
A: 56.4%

Q: And the “activity in EAE (in words)” value [1]?
A: some activity

Q: What about the “activity in EAE (in words)” value (Example 4, 15 and 25 mg/kg BID oral, Day 0 to 22) of the same molecule?
A: moderate activity

Q: Which results are given for `C#CCN1CCN(c2nc3ccc(OC(F)(F)F)cc3s2)CC1` [Compound A, 2-(4-(prop-2-ynyl)piperazin-1-yl)-6-(trifluoromethoxy)benzo[d]thiazole]?
A: protection from disease onset and severity (in words) (Example 4, 25, 50 and 100 mg/kg BID oral in 0.5% methyl cellulose, all doses tested): almost complete protection; efficacy compared with Compound B (Example 4, Compound A 25-100 mg/kg BID vs Compound B 15-25 mg/kg BID, oral): better than Compound B
